What was measured:
hairless mice skin [1] = experiment: Barrier recovery (TEWL) after tape stripping with topical application of reagent; assay type: in vivo, hairless mice (HR-1); settings: for effect on barrier recovery (percent recovery of TEWL): topical, 100 μl aqueous solution containing 1 μM of reagent immediately after tape stripping, TEWL at 1, 3 and 6 hours, vs water control, FIG. 3
Protocol: All experiments were performed on 7-10-week old male hairless mice (HR-1, Hoshino, Japan). All procedures for measuring of skin barrier function, disrupting the barrier and applying the sample were carried out under anesthesia. All experiments were approved by the Animal Research Committee of the Shiseido Research Center in accordance with the National Research Council Guide (National Research Council 1996). Human skin experiments were carried out on the inner forearm of healthy males who gave their informed consent. 4 alpha-phorbol 12,13-[…] (4 alpha-PDD) and Rutenium-Red were purchased from Sigma (Sigma, St.Louis, Mich. USA). Capsaicin, capsazepine, and 2-aminoethoxydiphenyl borate (2-APB) were purchased from Tocris (TOCRIS, Bristol, UK). Camphor was purchased Wako (Wako, Osaka, Japan). Capsaicin is an agonist of TRPV1 and capsazepine is an antagonist of TRPV1 (Caterina et al. 1997). Both 2-APB and camphor are activator of TRPV3 (Chung et al. 2003)(Moquich et al. 2005). 4 alpha-PDD is an activator of TRPV4 and Rutenium-Red is a blocker of TRPV4 (Watanabe et al. 2002).
(§1) Permeability barrier function was evaluated by measurement of transepidermal water loss (TEWL) with an electric water analyzer, as described previously (Denda et al. 1998). For barrier recovery experiments, both sides of flank skin were treated with repeated tape stripping procedure until the TEWL reached 7-10 mg per cm^2 per h, as described previously (Denda et al. 1998). Immediately after barrier disruption, 100 μl of an aqueous solution containing 1 μM of reagent or water alone (control) was applied to the treated area. […] The areas were covered with plastic membranes for 15 min and then the membranes were removed. Two points in one side of flank were measured and 4-8 mice were used to evaluate the effects of each treatment. We always disrupted the barrier within 7:00 AM to 8:00 AM and carried out the following measurements of the barrier repair to avoid the deviation of the repair rate due to the influence of circadian rhythm (Denda et al. 2000). TEWL was then measured over the same sites at 1, 3 and 6 hours after barrier disruption. The barrier recovery results are expressed as percent of recovery, because of variations from day to day in the extent of barrier disruption. In each animal, the percentage of recovery was calculated by the following formula: (TEWL immediately after barrier disruption−TEWL at indicated time point)/(TEWL immediately after barrier disruption−baseline TEWL)×100%. All experiments were performed on 7 to 10-week-old male hairless mice (HR-1, Hoshino, Japan). All procedures of the measurement of skin barrier function, disruption of the barrier and application of test sample were carried out under anesthesia.
The results are expressed as the mean ± SD. Statistical differences between two groups were determined by a two-tailed Student's t-test. In the case of more than 2 groups, differences were determined by ANOVA test (Fisher's protected least significant difference).

hairless mice skin [2] = experiment: Barrier recovery (TEWL) after tape stripping with applied heat plus topical reagent; assay type: in vivo, hairless mice (HR-1); settings: topical application, FIG. 4
Protocol: as §1, with “We always disrupted the barrier within 7:00 AM to 8:00 AM and carried out the following measurements of the barrier repair to avoid the deviation of the repair rate due to the influence of circadian rhythm (Denda et al. 2000).” left out, “All experiments were performed on 7 to 10-week-old male hairless mice (HR-1, Hoshino, Japan). All procedures of the measurement of skin barrier function, disruption of the barrier and application of test sample were carried out under anesthesia.” left out
The results are expressed as the mean ± SD. Statistical differences between two groups were determined by a two-tailed Student's t-test. […]

Row | Compound | effect on barrier recovery (percent recovery of TEWL) (hairless mice skin [1]) | effect on the delay of the barrier recovery by heat 42° C. (hairless mice skin [2]; heat 42° C. applied for one hour after tape stripping) | effect on the delay of barrier recovery after capsaicin application (hairless mice skin [1]; topical application on hairless mice skin after tape stripping, as worded in the summary b8) | effect on the acceleration of the barrier recovery by heat 36° C. (hairless mice skin [2]; heat 36° C. applied for one hour after tape stripping)
1 | CC12CCC(CC1=O)C2(C)C (stereo not drawn) [camphor, Camphor] | did not affect the barrier recovery rate | – | – | –
2 | Oc1cc2c(cc1O)CN(C(=S)NCCc1ccc(Cl)cc1)CCC2 [capsazepine] | accelerated the barrier repair | blocked the delay of the barrier recovery by heat 42 °C | the delay was blocked | –
3 | NCCOB(c1ccccc1)c1ccccc1 [2-aminoethoxydiphenyl borate] | did not affect the barrier recovery rate | – | – | –
4 | CCCCCCCCCC(=O)O[C@@H]1[C@@H](C)[C@@]2(O)[C@@H](C=C(CO)C[C@@]3(O)C(=O)C(C)=C[C@@H]23)[C@@H]2C(C)(C)[C@]12OC(=O)CCCCCCCCC [4 alpha-PDD, 4 alpha-phorbol 12,13-didecanoate] | accelerated the barrier recovery | – | – | –
5 | Rutenium-Red | delayed the recovery | – | – | blocked the acceleration of the barrier recovery by heat 36 °C
6 | COc1cc(CNC(=O)CCCC/C=C/C(C)C)ccc1O [capsaicin, Capsaicin] | delayed the barrier recovery | – | – | –

Source: patent publication US20070098665A1, “Effects of skin surface temperature on the epidermal permeability barrier homeostasis” (Shiseido Company, Ltd., priority 2005, published 2007)
